Like-named read-outs stand apart in the source and are kept apart here.
What was measured:
Zymoseptoria tritici = test: Leaf Blotch of Wheat (SEPTTR) fungicidal activity; type: in vivo; conditions: wheat leaf blotch; for pest or weed control at 100 ppm: High Volume application; for pest or weed control at 121.5 g/ha: Low Volume application, 121.5 g/H
Summary of the method: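 Wheat seedlings (Yuma, first leaf emerged) were sprayed to run-off with compound in acetone/water containing Triton X-100 and inoculated with Z. tritici spores before or after treatment. Percent disease control comes from 0–100% severity on treated versus untreated plants.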

Puccinia triticina = test: Wheat Brown Rust (PUCCRT) fungicidal activity; type: in vivo; conditions: for pest or weed control at 100 ppm: High Volume application; for pest or weed control at 121.5 g/ha: Low Volume application, 121.5 g/H
Summary of the method: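 Yuma wheat seedlings at first-leaf stage sprayed to run-off with acetone/water (Triton X-100) solutions, inoculated with P. triticina spores before or after treatment. Overnight dark dew at 22° C, then greenhouse at 24° C; percent disease control from severity versus untreated plants.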

[1] = 24 h, 1 day protectant, read-out: SEPTTR disease control, 1DP (1 Day Protectant)
[2] = 72 h, 3 day curative, read-out: SEPTTR disease control, 3DC (3 Day Curative)
[3] = 24 h, 1 day protectant, read-out: PUCCRT disease control, 1DP (1 Day Protectant)
[4] = 72 h, 3 day curative, read-out: PUCCRT disease control, 3DC (3 Day Curative)

CCCCO[C@H]1CCOC[C@H](NC(=O)c2nccc(OC)c2O)C(=O)O[C@@H](C)[C@@H]1OC(=O)C(C)C [Compound 83]
pest or weed control at 100 ppm (Zymoseptoria tritici; [1]): < 80%
pest or weed control at 100 ppm (Zymoseptoria tritici; [2]): > 80%
pest or weed control at 100 ppm (Puccinia triticina; [3]): > 80%
pest or weed control at 100 ppm (Puccinia triticina; [4]): > 80%

COc1ccnc(C(=O)N[C@H]2CCOC[C@H](OCC(C)C)[C@@H](Oc3ccccc3)[C@H](C)OC2=O)c1OCOC(C)=O [Compound 45]
pest or weed control at 121.5 g/ha (Zymoseptoria tritici; [1]): > 80%
pest or weed control at 121.5 g/ha (Zymoseptoria tritici; [2]): > 80%
pest or weed control at 121.5 g/ha (Puccinia triticina; [3]): > 80%
pest or weed control at 121.5 g/ha (Puccinia triticina; [4]): > 80%

COc1ccnc(C(=O)N[C@H]2CCCC[C@H](OCC(C)C)[C@@H](Oc3ccccc3)[C@H](C)OC2=O)c1OCOC(C)=O [Compound 13]
pest or weed control at 100 ppm (Zymoseptoria tritici; [1]): > 80%
pest or weed control at 121.5 g/ha (Zymoseptoria tritici; [1]): > 80%
pest or weed control at 100 ppm (Zymoseptoria tritici; [2]): > 80%
pest or weed control at 121.5 g/ha (Zymoseptoria tritici; [2]): > 80%
pest or weed control at 100 ppm (Puccinia triticina; [3]): > 80%
pest or weed control at 121.5 g/ha (Puccinia triticina; [3]): > 80%
pest or weed control at 100 ppm (Puccinia triticina; [4]): > 80%
pest or weed control at 121.5 g/ha (Puccinia triticina; [4]): > 80%

COc1ccnc(C(=O)N[C@H]2CCCC[C@H](OC)[C@@H](OC3CCCC3)[C@H](C)OC2=O)c1OCOC(C)=O [Compound 34]
pest or weed control at 121.5 g/ha (Zymoseptoria tritici; [1]): < 80%
pest or weed control at 121.5 g/ha (Zymoseptoria tritici; [2]): > 80%
pest or weed control at 121.5 g/ha (Puccinia triticina; [3]): > 80%
pest or weed control at 121.5 g/ha (Puccinia triticina; [4]): > 80%

COc1ccnc(C(=O)N[C@H]2CCCC[C@H](OC)[C@@H](Oc3ccccc3)[C@H](C)OC2=O)c1O [Compound 91]
pest or weed control at 100 ppm (Zymoseptoria tritici; [1]): > 80%
pest or weed control at 100 ppm (Zymoseptoria tritici; [2]): > 80%
pest or weed control at 100 ppm (Puccinia triticina; [3]): > 80%
pest or weed control at 100 ppm (Puccinia triticina; [4]): > 80%

COc1ccnc(C(=O)N[C@H]2COCC[C@H](OCc3ccccc3)[C@@H](OCc3ccccc3)[C@H](C)OC2=O)c1OCOC(C)=O [Compound 1]
pest or weed control at 100 ppm (Zymoseptoria tritici; [1]): > 80%
pest or weed control at 121.5 g/ha (Zymoseptoria tritici; [1]): > 80%
pest or weed control at 121.5 g/ha (Zymoseptoria tritici; [2]): < 80%
pest or weed control at 100 ppm (Puccinia triticina; [3]): > 80%
pest or weed control at 121.5 g/ha (Puccinia triticina; [3]): > 80%
pest or weed control at 100 ppm (Puccinia triticina; [4]): > 80%

COc1ccnc(C(=O)N[C@H]2CCCC[C@H](OC)[C@@H](OC)[C@H](C)OC2=O)c1OC(C)=O [Compound 27]
pest or weed control at 121.5 g/ha (Zymoseptoria tritici; [1]): < 80%
pest or weed control at 121.5 g/ha (Puccinia triticina; [3]): > 80%
pest or weed control at 121.5 g/ha (Puccinia triticina; [4]): > 80%

COc1ccnc(C(=O)N[C@H]2CCCC[C@H](Oc3ccccc3)[C@@H](Oc3ccccc3)[C@H](C)OC2=O)c1OC(C)=O [Compound 25]
pest or weed control at 121.5 g/ha (Zymoseptoria tritici; [1]): > 80%
pest or weed control at 121.5 g/ha (Zymoseptoria tritici; [2]): < 80%
pest or weed control at 121.5 g/ha (Puccinia triticina; [3]): > 80%
pest or weed control at 121.5 g/ha (Puccinia triticina; [4]): < 80%

CCCO[C@H]1CCCC[C@H](NC(=O)c2nccc(OC)c2O)C(=O)O[C@@H](C)[C@@H]1Oc1ccccc1 [Compound 100]
pest or weed control at 100 ppm (Zymoseptoria tritici; [1]): > 80%
pest or weed control at 100 ppm (Zymoseptoria tritici; [2]): > 80%
pest or weed control at 100 ppm (Puccinia triticina; [3]): > 80%
pest or weed control at 100 ppm (Puccinia triticina; [4]): > 80%

COc1ccnc(C(=O)N[C@H]2CCOC[C@H](OC(=O)C(C)C)[C@@H](Oc3ccccc3)[C@H](C)OC2=O)c1O [Compound 117]
pest or weed control at 100 ppm (Zymoseptoria tritici; [1]): > 80%
pest or weed control at 100 ppm (Zymoseptoria tritici; [2]): < 80%
pest or weed control at 100 ppm (Puccinia triticina; [3]): < 80%

COc1ccnc(C(=O)N[C@H]2CCCC[C@H](OCc3ccccc3)[C@@H](OCc3ccccc3)[C@H](C)OC2=O)c1OCOC(C)=O [Compound 8]
pest or weed control at 100 ppm (Zymoseptoria tritici; [1]): > 80%
pest or weed control at 121.5 g/ha (Zymoseptoria tritici; [1]): > 80%
pest or weed control at 100 ppm (Zymoseptoria tritici; [2]): < 80%
pest or weed control at 121.5 g/ha (Zymoseptoria tritici; [2]): > 80%
pest or weed control at 100 ppm (Puccinia triticina; [3]): > 80%
pest or weed control at 121.5 g/ha (Puccinia triticina; [3]): > 80%
pest or weed control at 100 ppm (Puccinia triticina; [4]): > 80%
pest or weed control at 121.5 g/ha (Puccinia triticina; [4]): > 80%

From patent US20180002319A1, “MACROCYCLIC PICOLINAMIDE COMPOUNDS WITH FUNGICIDAL ACTIVITY” (DOW AGROSCIENCES LLC, priority 2014, published 2018)
